{"source": "ChEMBL document CHEMBL4613209", "about": "“Quinolone hybrids and their anti-cancer activities: An overview” (Eur J Med Chem, 2019)", "key": {"Hep 3B2 [1]": {"test_system": "Hep 3B2", "assay": "Anticancer activity against human Hep3B cells after 48 to 72 hrs by MTT assay", "assay_type": "functional, cell-based"}, "K562": {"test_system": "K562", "assay": "Anticancer activity against human K562 cells after 48 to 72 hrs by MTT assay", "assay_type": "functional, cell-based"}, "HL-60 [2]": {"test_system": "HL-60", "assay": "Potency index, ratio of IC50 for doxorubicin to IC50 for test compound for cytotoxicity against human HL60 cells assessed as reduction in cell viability", "assay_type": "functional"}, "Hep 3B2 [3]": {"test_system": "Hep 3B2", "assay": "Cytotoxicity against human Hep3B cells assessed as reduction in cell viability", "assay_type": "functional, cell-based"}, "CAPAN-1 [4]": {"test_system": "CAPAN-1", "assay": "Cytotoxicity against human Capan1 cells assessed as reduction in cell viability", "assay_type": "functional, cell-based"}, "HL-60 [5]": {"test_system": "HL-60", "assay": "Cytotoxicity against human HL60 cells assessed as reduction in cell viability", "assay_type": "functional, cell-based"}, "Hep 3B2 [6]": {"test_system": "Hep 3B2", "assay": "Potency index, ratio of IC50 for doxorubicin to IC50 for test compound for cytotoxicity against human Hep3B cells assessed as reduction in cell viability", "assay_type": "functional"}, "CAPAN-1 [7]": {"test_system": "CAPAN-1", "assay": "Potency index, ratio of IC50 for doxorubicin to IC50 for test compound for cytotoxicity against human Capan1 cells assessed as reduction in cell viability", "assay_type": "functional"}, "L1210": {"test_system": "L1210", "assay": "Cytotoxicity against mouse L1210 cells assessed as reduction in cell viability after 24 to 72 hrs by MTT assay", "assay_type": "functional, cell-based"}, "HeLa [8]": {"test_system": "HeLa", "assay": "Cytotoxicity against human HeLa cells assessed as reduction in cell viability after 24 to 72 hrs by MTT assay", "assay_type": "functional, cell-based"}, "MCF7 [9]": {"test_system": "MCF7", "assay": "Anticancer activity against human MCF7 cells after 48 hrs by SRB assay", "assay_type": "functional, cell-based", "conditions": "MCF7, 48 h"}, "DU-145 [10]": {"test_system": "DU-145", "assay": "Potency index, ratio of IC50 for etoposide to IC50 for test compound for anticancer activity against human DU145 cells after 48 hrs by SRB assay", "assay_type": "functional"}, "A549 [11]": {"test_system": "A549", "assay": "Anticancer activity against human A549 cells after 48 hrs by SRB assay", "assay_type": "functional, cell-based", "conditions": "A549, 48 h"}, "SK-OV-3 [12]": {"test_system": "SK-OV-3", "assay": "Anticancer activity against human SKOV3 cells after 48 hrs by SRB assay", "assay_type": "functional, cell-based", "conditions": "SK-OV-3, 48 h"}, "DU-145 [13]": {"test_system": "DU-145", "assay": "Anticancer activity against human DU145 cells after 48 hrs by SRB assay", "assay_type": "functional, cell-based", "conditions": "DU-145, 48 h"}, "HeLa [14]": {"test_system": "HeLa", "assay": "Potency index, ratio of IC50 for etoposide to IC50 for test compound for anticancer activity against human HeLa cells after 48 hrs by SRB assay", "assay_type": "functional"}, "MCF7 [15]": {"test_system": "MCF7", "assay": "Potency index, ratio of IC50 for etoposide to IC50 for test compound for anticancer activity against human MCF7 cells after 48 hrs by SRB assay", "assay_type": "functional"}, "HeLa [16]": {"test_system": "HeLa", "assay": "Anticancer activity against human HeLa cells after 48 hrs by SRB assay", "assay_type": "functional, cell-based"}, "HL-60 [17]": {"test_system": "HL-60", "assay": "Potency index, ratio of IC50 for etoposide to IC50 for test compound for anticancer activity against human HL60 cells after 48 hrs by SRB assay", "assay_type": "functional"}, "HCT-116 [18]": {"test_system": "HCT-116", "assay": "Potency index, ratio of IC50 for etoposide to IC50 for test compound for anticancer activity against human HCT116 cells after 48 hrs by SRB assay", "assay_type": "functional"}, "PANC-1 [19]": {"test_system": "PANC-1", "assay": "Potency index, ratio of IC50 for etoposide to IC50 for test compound for anticancer activity against human PANC1 cells after 48 hrs by SRB assay", "assay_type": "functional"}, "MCF7-DOX [20]": {"test_system": "MCF7-DOX", "assay": "Potency index, ratio of IC50 for etoposide to IC50 for test compound for anticancer activity against human MCF7/Dox cells after 48 hrs by SRB assay", "assay_type": "functional"}, "PANC-1 [21]": {"test_system": "PANC-1", "assay": "Anticancer activity against human PANC1 cells after 48 hrs by SRB assay", "assay_type": "functional, cell-based", "conditions": "PANC-1, 48 h"}, "A549 [22]": {"test_system": "A549", "assay": "Potency index, ratio of IC50 for etoposide to IC50 for test compound for anticancer activity against human A549 cells after 48 hrs by SRB assay", "assay_type": "functional"}, "SK-OV-3 [23]": {"test_system": "SK-OV-3", "assay": "Potency index, ratio of IC50 for etoposide to IC50 for test compound for anticancer activity against human SKOV3 cells after 48 hrs by SRB assay", "assay_type": "functional"}, "HL-60 [24]": {"test_system": "HL-60", "assay": "Anticancer activity against human HL60 cells after 48 hrs by SRB assay", "assay_type": "functional, cell-based", "conditions": "HL-60, 48 h"}, "MCF7-DOX [25]": {"test_system": "MCF7-DOX", "assay": "Anticancer activity against human MCF7/Dox cells after 48 hrs by SRB assay", "assay_type": "functional, cell-based"}, "HepG2": {"test_system": "HepG2", "assay": "Anticancer activity against human HepG2 cells after 48 hrs by SRB assay", "assay_type": "functional, cell-based", "conditions": "HepG2, 48 h"}, "HCT-116 [26]": {"test_system": "HCT-116", "assay": "Anticancer activity against human HCT116 cells after 48 hrs by SRB assay", "assay_type": "functional, cell-based", "conditions": "HCT-116, 48 h"}, "SMMC-7721": {"test_system": "SMMC-7721", "assay": "Anticancer activity against human SMMC7721 cells after 48 to 72 hrs by MTT assay", "assay_type": "functional, cell-based"}, "HCT-116 [27]": {"test_system": "HCT-116", "assay": "Anticancer activity against human HCT116 cells after 48 to 72 hrs by MTT assay", "assay_type": "functional, cell-based"}, "Jurkat": {"test_system": "Jurkat", "assay": "Anticancer activity against human Jurkat cells after 48 to 72 hrs by MTT assay", "assay_type": "functional, cell-based"}, "EJ": {"test_system": "EJ", "assay": "Cytotoxicity against human EJ cells assessed as reduction in cell viability by MTT assay", "assay_type": "functional, cell-based"}, "MCF7 [28]": {"test_system": "MCF7", "assay": "Potency index, ratio of IC50 for etoposide to IC50 for test compound for cytotoxicity against human MCF7 cells assessed as reduction in cell viability after 72 hrs by MTT assay", "assay_type": "functional"}, "MCF7 [29]": {"test_system": "MCF7", "assay": "Cytotoxicity against human MCF7 cells assessed as reduction in cell viability by MTT assay", "assay_type": "functional, cell-based"}, "MCF7 [30]": {"test_system": "MCF7", "assay": "Cytotoxicity against human MCF7 cells assessed as reduction in cell viability after 72 hrs by MTT assay", "assay_type": "functional, cell-based", "conditions": "MCF7, 72 h"}, "SW480": {"test_system": "SW480", "assay": "Cytotoxicity against human SW480 cells assessed as reduction in cell viability by MTT assay", "assay_type": "functional, cell-based"}, "A-431": {"test_system": "A-431", "assay": "Cytotoxicity against human A431 cells assessed as reduction in cell viability by MTT assay", "assay_type": "functional, cell-based"}, "SK-MEL3": {"test_system": "SK-MEL3", "assay": "Cytotoxicity against human SK-MEL-3 cells assessed as reduction in cell viability by MTT assay", "assay_type": "functional, cell-based"}}, "data": [{"compound": "O=c1c(/C(CCN2CCOCC2)=N/Nc2ccccc2)c(O)c2ccccc2n1-c1ccccc1", "values": [{"measurement": "IC50", "setting": "Hep 3B2 [1]", "value": "< 20", "unit": "µg/mL"}, {"measurement": "IC50", "setting": "K562", "value": "< 20", "unit": "µg/mL"}]}, {"compound": "CN1CCN(c2cc3c(cc2F)c(=O)c(-c2nc4s/c(=C\\c5ccc(S(N)(=O)=O)cc5)c(=O)n4n2)cn3C2CC2)CC1", "values": [{"measurement": "Ratio IC50", "setting": "HL-60 [2]", "value": "2.3 - 5.6"}, {"measurement": "IC50", "setting": "Hep 3B2 [3]", "value": 700, "unit": "nM"}, {"measurement": "IC50", "setting": "CAPAN-1 [4]", "value": 300, "unit": "nM"}, {"measurement": "IC50", "setting": "HL-60 [5]", "value": 1500, "unit": "nM"}, {"measurement": "Ratio IC50", "setting": "Hep 3B2 [6]", "value": "2.3 - 5.6"}, {"measurement": "Ratio IC50", "setting": "CAPAN-1 [7]", "value": "2.3 - 5.6"}]}, {"compound": "CCOC(=O)c1cn(CC)c2c(ccc3n[se]nc32)c1=O", "values": [{"measurement": "IC50", "setting": "L1210", "value": "≤ 100", "unit": "µM"}, {"measurement": "IC50", "setting": "HeLa [8]", "value": "≤ 100", "unit": "µM"}]}, {"compound": "CC1(CN)CN(c2ccc3c(=O)c(C(=O)O)cn(-c4nccs4)c3n2)C/C1=N/OCc1ccccc1", "note": "(stereo unspecified)", "values": [{"measurement": "IC50", "setting": "MCF7 [9]", "value": "0.5 to 6.25", "unit": "µM"}, {"measurement": "Ratio IC50", "setting": "DU-145 [10]", "value": ">=1.3 - 100"}, {"measurement": "IC50", "setting": "A549 [11]", "value": "0.5 to 6.25", "unit": "µM"}, {"measurement": "IC50", "setting": "SK-OV-3 [12]", "value": "0.5 to 6.25", "unit": "µM"}, {"measurement": "IC50", "setting": "DU-145 [13]", "value": "0.5 to 6.25", "unit": "µM"}, {"measurement": "Ratio IC50", "setting": "HeLa [14]", "value": ">=1.3 - 100"}, {"measurement": "Ratio IC50", "setting": "MCF7 [15]", "value": ">=1.3 - 100"}, {"measurement": "IC50", "setting": "HeLa [16]", "value": "0.5 to 6.25", "unit": "µM"}, {"measurement": "Ratio IC50", "setting": "HL-60 [17]", "value": ">=1.3 - 100"}, {"measurement": "Ratio IC50", "setting": "HCT-116 [18]", "value": ">=1.3 - 100"}, {"measurement": "Ratio IC50", "setting": "PANC-1 [19]", "value": ">=1.3 - 100"}, {"measurement": "Ratio IC50", "setting": "MCF7-DOX [20]", "value": ">=1.3 - 100"}, {"measurement": "IC50", "setting": "PANC-1 [21]", "value": "0.5 to 6.25", "unit": "µM"}, {"measurement": "Ratio IC50", "setting": "A549 [22]", "value": ">=1.3 - 100"}, {"measurement": "Ratio IC50", "setting": "SK-OV-3 [23]", "value": ">=1.3 - 100"}, {"measurement": "IC50", "setting": "HL-60 [24]", "value": "0.5 to 6.25", "unit": "µM"}, {"measurement": "IC50", "setting": "MCF7-DOX [25]", "value": "0.5 to 6.25", "unit": "µM"}, {"measurement": "IC50", "setting": "HepG2", "value": "0.5 to 6.25", "unit": "µM"}, {"measurement": "IC50", "setting": "HCT-116 [26]", "value": "0.5 to 6.25", "unit": "µM"}]}, {"compound": "COc1cc(/C=N/n2c(SCc3ccccc3)nnc2-c2cn(C3CC3)c3cc(N4CCNCC4)c(F)cc3c2=O)cc(OC)c1OC", "values": [{"measurement": "IC50", "setting": "SMMC-7721", "value": "< 50", "unit": "µM"}, {"measurement": "IC50", "setting": "HCT-116 [27]", "value": "< 50", "unit": "µM"}, {"measurement": "IC50", "setting": "Jurkat", "value": "< 50", "unit": "µM"}]}, {"compound": "C/C(=N\\Nc1ccccc1)c1c(O)c2ccccc2n(-c2ccccc2)c1=O", "values": [{"measurement": "IC50", "setting": "Hep 3B2 [1]", "value": "< 10", "unit": "µg/mL"}, {"measurement": "IC50", "setting": "K562", "value": "< 10", "unit": "µg/mL"}]}, {"compound": "CCn1cc(C(=O)O)c(=O)c2cc(F)c(N3CCN(C/C(=N/OC)c4ccc(Cl)s4)CC3)cc21", "values": [{"measurement": "IC50", "setting": "EJ", "value": "≤ 20", "unit": "µM"}, {"measurement": "Ratio IC50", "setting": "MCF7 [28]", "value": 4.64}, {"measurement": "IC50", "setting": "MCF7 [29]", "value": "≤ 20", "unit": "µM"}, {"measurement": "IC50", "setting": "MCF7 [30]", "value": "2.5 to 5", "unit": "µM"}, {"measurement": "IC50", "setting": "SW480", "value": "≤ 20", "unit": "µM"}, {"measurement": "IC50", "setting": "A-431", "value": "≤ 20", "unit": "µM"}, {"measurement": "IC50", "setting": "SK-MEL3", "value": "≤ 20", "unit": "µM"}]}]}
